Assay results published in PubChem BioAssay (NCI).
Where “and” joins values, the source holds several entries; their conditions need not be identical. Equal entries are not always repeated.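 The compound was tested at five concentrations on cells cultured in 96-well plates, with a 48-hour exposure period. At the GI50, growth is halved. The concentration for full growth arrest is given as TGI.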

Assays:
Test in all cases: NCI anticancer screen, dose series, 48 h
UACC-62 melanoma = test system: UACC-62 melanoma
LOX IMVI melanoma = test system: LOX IMVI melanoma
MCF7 breast = test system: MCF7 breast
MDA-MB-435 = test system: MDA-MB-435
SK-MEL-5 melanoma = test system: SK-MEL-5 melanoma
A549 NSCLC = test system: A549 NSCLC
HT29 colon = test system: HT29 colon
OVCAR-8 ovarian = test system: OVCAR-8 ovarian
RPMI-8226 leukemia = test system: RPMI-8226 leukemia
ACHN renal = test system: ACHN renal

SMILES | GI50 (UACC-62 melanoma) | TGI (UACC-62 melanoma) | GI50 (LOX IMVI melanoma) | TGI (LOX IMVI melanoma) | GI50 (MCF7 breast) | TGI (MCF7 breast) | GI50 (MDA-MB-435) | TGI (MDA-MB-435) | GI50 (SK-MEL-5 melanoma) | TGI (SK-MEL-5 melanoma) | GI50 (A549 NSCLC) | TGI (A549 NSCLC) | GI50 (HT29 colon) | TGI (HT29 colon) | GI50 (OVCAR-8 ovarian) | TGI (OVCAR-8 ovarian) | GI50 (RPMI-8226 leukemia) | TGI (RPMI-8226 leukemia) | GI50 (ACHN renal) | TGI (ACHN renal)
O=C(CCCCCCSc1nc(-c2ccccc2)cc(-c2ccc(Cl)cc2)n1)NO | 1.37 µM | 3.5 µM | 2.06 µM | 4.66 µM | 1.95 µM | 13.3 µM | 2.24 µM | 10.9 µM | 1.69 µM | 3.93 µM | 2.16 µM | 6.23 µM | 2.05 µM | 11.4 µM | 1.93 µM | 10.2 µM | 0.64 µM | 6.19 µM | 1.58 µM | 3.64 µM
Cc1ccc(CNc2c3ccccc3nc3ccccc23)cc1 | 1.75 µM | 4.1 µM | 1.48 µM | 2.84 µM | 1.99 µM | 5.03 µM | 1.63 µM | 3.1 µM | 1.66 µM | 3.06 µM | 1.94 µM | 5.05 µM | 2.08 µM | 10.7 µM | 2.52 µM | 10.5 µM | 1.48 µM | 3.86 µM | 1.63 µM | 3.95 µM
COc1cc([C@H]2c3cc4c(cc3O[C@@]3(O)COC(=O)[C@@H]23)OCO4)cc(OC)c1OC |  | > 100 µM |  | > 100 µM |  | > 100 µM |  | > 100 µM |  | > 100 µM |  | > 100 µM |  | > 100 µM |  | > 100 µM |  | > 100 µM |  | > 100 µM
O=[N+]([O-])c1ccc(C(c2c[nH]c3ccccc23)c2c[nH]c3ccccc23)cc1 |  | 26.5 µM |  | 41.2 µM |  | 7.4 µM |  | 32.3 µM |  | 20.2 µM |  | 41.4 µM |  | 31.8 µM |  | 33.2 µM |  | 13.4 µM |  | 21.5 µM
N#Cc1c(-c2nc3ccccc3s2)c(=O)oc2cc(O)ccc12 |  | > 100 µM |  | > 100 µM |  | > 100 µM |  | > 100 µM |  | 69.8 µM |  | > 100 µM |  | > 100 µM |  | > 100 µM |  | > 100 µM |  | > 100 µM
COc1ccc(C(=O)/C(Br)=C/C(=O)O)cc1 | 12.3 µM | 45.3 µM and 32.3 µM | 18.1 µM | 53.2 µM and 53 µM | 7.41 µM | 44.5 µM and 59.9 µM | 8.18 µM | 111 µM and 33.5 µM | 12.7 µM | 39.6 µM and 47.7 µM | 25.2 µM | 275 µM and 246 µM | 59.4 µM | 658 µM and 491 µM |  | 326 µM | 7.57 µM | 110 µM and 78.6 µM | 78.8 µM | 293 µM and 235 µM
CS(=O)(=O)CCNCc1nc(-c2ccc3ncnc(Nc4ccc(F)c(Cl)c4)c3c2)cs1 | 17.6 µM | > 25 µM | 14.1 µM | > 25 µM | > 23.3 µM | > 25 µM | 18 µM | > 25 µM | 11.5 µM | > 25 µM | 15.8 µM | > 25 µM | 16.5 µM | > 25 µM | 14.4 µM | > 25 µM | > 21.4 µM | > 25 µM | 0.785 µM | > 25 µM
Cc1c2c(nn1-c1ccc(S(=O)(=O)NC(=S)Nc3ccccc3)cc1)-c1ccccc1CC2 | > 50 µM | > 50 µM | 25.8 µM | > 50 µM | 11.5 µM | 34.3 µM | 14.4 µM | > 50 µM | > 50 µM | > 50 µM | > 50 µM | > 50 µM | > 50 µM | > 50 µM | > 50 µM | > 50 µM | 15.5 µM | 42.4 µM | > 50 µM | > 50 µM
O=C(NNc1nc(Cl)nc(N2CCN(C(c3ccccc3)c3ccccc3)CC2)n1)c1ccccc1 | 1.72 µM | 3.29 µM | 1.54 µM | 2.94 µM | 6.44 µM | > 100 µM | 1.75 µM | 3.21 µM | 5.35 µM | 18.8 µM | 13.5 µM | 30.5 µM | 1.92 µM | 4.07 µM | 1.99 µM | 4.67 µM | 3.79 µM | > 100 µM | 1.75 µM | 3.17 µM
COc1ccc2nc(N/N=C(\C)c3ccccn3)cc(C)c2c1 | 0.275 µM | 1.01 µM | 0.236 µM | 1.28 µM | 0.288 µM | 1.07 µM | 0.408 µM | 1.69 µM | 0.244 µM | 1.12 µM | 0.315 µM | 3.24 µM | 0.116 µM |  | 0.286 µM | 2.53 µM | 0.369 µM | 1.36 µM | 0.22 µM | 1.21 µM
COc1cc2c(cc1OC)C(=O)/C(=C/c1cccc(OCC(=O)c3ccccc3)c1)C2 | 8.07 µM | 90.8 µM | 18.3 µM | > 100 µM | 5.83 µM | > 100 µM | 23.1 µM | > 100 µM | 4.24 µM | > 100 µM | 26.6 µM | > 100 µM | 12.9 µM | > 100 µM | 5.04 µM | > 100 µM | 1.4 µM | 3.9 µM | 26.7 µM | > 100 µM
CCC[CH2][Sn-]([CH2]CCC)([CH2]CCC)[O]c1cc(Cl)c(Cl)cc1Cl | 0.152 µM | 0.394 µM | 0.175 µM | 0.34 µM | 0.237 µM | 0.887 µM | 0.16 µM | 0.359 µM | 0.168 µM | 0.335 µM | 0.205 µM | 0.502 µM | 0.162 µM | 0.404 µM | 0.221 µM | 0.557 µM | 0.137 µM | 0.853 µM | 0.19 µM | 0.339 µM
O=C1NCc2ccc3c(-c4cccc(Cl)c4)c[nH]c3c21 | 0.278 µM | > 50 µM | 0.279 µM | > 50 µM | 0.177 µM | > 50 µM | 0.0604 µM | 0.239 µM | 0.269 µM | > 20.4 µM | 0.438 µM | > 50 µM | 0.18 µM | > 50 µM | 0.503 µM | > 50 µM | 0.257 µM | 49 µM | 0.333 µM | > 50 µM
COc1cc(C2C=C(c3cccc(NC(C)=O)c3)Nc3ncnn32)cc(OC)c1OC (stereo not drawn) | 0.262 µM | > 100 µM | 0.596 µM | > 100 µM | 0.317 µM | > 100 µM | 0.117 µM | 0.579 µM | 0.397 µM | 22.2 µM | 6.68 µM | > 100 µM | 1.38 µM | > 100 µM | 0.327 µM | > 100 µM | 3.35 µM | 32.5 µM | 3.47 µM | > 100 µM
